# Laboratory results as given in patent US20130310454A1, “PHARMACEUTICAL COMPOSITION COMPRISING EXTRACT OF LONICERA JAPONICA FOR PREVENTION AND TREATMENT OF GASTROESOPHAGEAL REFLUX DISEASE” (priority 2010, published 2013).
# Experiments:
# TNF-α = experiment: TNF-alpha level in esophagus tissue (ELISA), anti-inflammatory effect; type: in vivo, rat; conditions: 10 mg/kg; for inflammation inhibition ratio: calculated from TNF-alpha of test, control and normal groups; for TNF-alpha: esophagus tissue of reflux rats, normal group 120.3, control group 325.2
# Experimental: On the Lonicerae Flos extract, the Lonicerae Flos fraction, or a compound isolated from the fraction (3,5-di-O-caffeoylquinic acid or 4,5-di-O-caffeoylquinic acid), having a therapeutic effect in a rat model of gastroesophageal reflux disease, in order to measure an anti-inflammatory effect within esophagus tissue, a level of Tumor necrosis factor-alpha(TNF-α) playing an important role in inflammatory disease mechanism was measured within esophagus tissue of a rat (Nippon Rinsho, 68(5), 819-822, 2010). As a kit for this measurement, rat TNF-α ELISA kit (Cat No:88-7340, eBioscience) was used. Each of esophagus tissues of all test groups, obtained from <Experimental Example 1>was introduced into homogenizing buffer (10×)(pH 7.4: 1.15% KCl, 50 mM Tris-HCl, 1 mM EDTA), followed by grinding by a homogenizer. Then, after centrifugation at 3,000 rpm or more for 10 minutes, the homogenized tissue liquid (supernatant) was separated, and then stored in a deep freezer for the use in the experiment. After all antigen-antibody reactions were completed, the absorbency was measured by ELISA Reader (BIORAD) at 450 nm, and then the amount of TNF-α in esophagus tissue was expressed by using a reference curve of absorbency. The inflammation inhibition ratio (%) of a test material was calculated by the following equation. Also, the anti-inflammatory effect by the Lonicerae Flos extract in a rat model of gastroesophageal reflux disease is noted in Table 2.
# Inflammation inhibition ratio (%)=1−((test group-normal group)/(control group-normal group))×100
# [1] = test system: Hexosamine of esophagus mucous membrane; experiment: Amount of hexosamine in esophagus tissue; type: in vivo, rat; conditions: esophagus tissue of reflux rats; for Hexosamine: 10 mg/kg, normal group 1101.3, control group 925.3; for content of hexosamine compared to that of a control group: doses as in Table 3
# Experimental: (§1) On the Lonicerae Flos extract, the Lonicerae Flos fraction, or a compound isolated from the fraction (3,5-di-O-caffeoylquinic acid or 4,5-di-O-caffeoylquinic acid), having a therapeutic effect in a rat model of gastroesophageal reflux disease, the amounts of Hexosamine and Sialic acid constituting esophagus mucous membrane of esophagus tissue were measured.
# Esophagus tissues of all test groups, obtained from <Experimental Example 1>, were immersed in ethanol, and then left in acetone for 2 days, and in ether for 1 day, followed by cleaning and drying. The test sample was weighed, added with 5 ml of 4N HCl solution, and hydrolyzed by being heated at 100° C. for 9 hours. Then, the resultant product was cooled at room temperature, and filtered. 0.5 ml of filtrate was added with 0.5 ml of 4N NaOH solution for neutralization, and then added with 1 ml of acetylacetone solution, followed by shaking. Then, the resultant product was heated at 100° C. for 20 minutes, and cooled, and then added with 5 ml of isoamylalcohol, followed by shaking for 2 minutes. After centrifugation at 3,000 rpm for 10 minutes, 2 ml of supernatant was collected. The supernatant was added with 0.5 ml of a color agent, and left for 15 minutes, and then its absorbency was measured at 530 nm. From a calibration curve obtained by using Glucosamine, the content of hexosamine was calculated.
# [2] = test system: Sialic acid of esophagus mucous membrane; experiment: Amount of sialic acid in esophagus tissue; type: in vivo, rat; conditions: esophagus tissue of reflux rats; for Sialic acid: 10 mg/kg, normal group 125.2, control group 95.2; for content of sialic acid compared to that of a control group: doses as in Table 3
# Experimental: as §1
# Esophagus tissues of all test groups, obtained from <Experimental Example 1>, were immersed in ethanol, and then left in acetone for 2 days, and in ether for 1 day, followed by cleaning and drying. The test sample was weighed, added with 5 ml of 0.1N H2SO4 solution, and hydrolyzed by being heated at 80° C. for 1 hour. Then, the resultant product was cooled at room temperature, and filtered. 0.2 ml of filtrate was mixed with 0.1 ml of 0.2M periodate solution, and left at room temperature for 20 minutes. Then, the resultant solution was mixed with 1 ml of 10% arsenite solution until a yellowish brown color disappeared. 3 ml of 0.6% TBA solution was added thereto, followed by mixing. The resultant product was covered with a cap, and heated at 100° C. for 15 minutes, cooled, and left in a cool bath for 5 minutes, followed by cen- trifugation at 3,000 rpm for 10 minutes. A supernatant was collected, and its absorbency was measured at 549nm. From a calibration curve obtained by using N-acetylneuraminic acid, the content of Sialic acid was calculated.
# [3] = test system: SPF SD-based female/male rats; experiment: Toxicity test of acute oral administration; type: in vivo; conditions: single oral dose 1.0 g/kg or 2.0 g/kg in 0.5% CMC; 5 female and 5 male SD rats; autopsy after 7 days; safe up to 2.0 g/kg
# Experimental: By applying the Lonicerae Flos extract of Example 1, fractions of Examples 4 and 5, and 3,5-di-O-caffeoylquinic acid and 4,5-di-O-caffeoylquinic acid from Example 6, to SPF (specific pathogen free) SD-based female/male rats aged 6 weeks, an acute toxicity test was carried out.
# Female 5 rats and male 5 rats of each test group were orally administered with the test materials from Examples in a dose of 1.0 g/kg or 2.0 g/kg. The test materials were suspended in 0.5% CMC (Carboxymethyl cellulose) solution before the administration. When the test materials were administered, mortality, clinical symptoms, and weight changes of animals were observed. 7 days after the administration, through autopsy, a hematologic examination and a blood chemical test were carried out. Then, with the naked eye, it was observed if there was abnormality in abdominal cavity organs and thoracic cage organs. […] Also, through weight measurement, a blood test, a blood chemical test, and autopsy results, an abnormal change was not observed.
# [4] = test system: lipid peroxidation of esophagus tissue; experiment: Lipid peroxide (malondialdehyde) of esophagus tissue in rat model of gastroesophageal reflux disease; type: in vivo; conditions: esophagus mucous membrane from Experimental Example 1 (10 mg/kg oral); malondialdehyde by TBA, 532 nm
# Experimental: A test for finding out the inhibition of lipid peroxidation by the inventive Lonicerae Flos extract, the inventive Lonicerae Flos fraction, or a compound isolated from the fraction (3,5-di-O-caffeoylquinic acid or 4,5-di-O-caffeoylquinic acid) was carried out. the esophagus mucous membrane extracted in Experimental Example 1 was taken out, and added in 1 ml of tris-hydrochloric acid buffer solution (pH 7.0), followed by ultrasonic grinding. After centrifugation (600×g, 4° C.) for 5 minutes, 0.3 ml of supernatant was added with 0.9 ml of trichloroacetic acid (8%). Then, after centrifugation (10,000×g, 4° C.) for 5 minutes, 1 ml of supernatant was added with 0.25 ml of TBA(1%), and then with 2 ml of n-butanol. Then, after centrifugation (3,000×g , 4° C.) for 5 minutes, on 1 ml of butanol fraction, the absorbency was measured at 532 nm. As a reference material, malonaldehyde bis-dimethyl acetal was used. The result was expressed as nmol/mg protein, and protein quantitative analysis was carried out by Bradford assay.
# [5] = test system: rat model of gastroesophageal reflux disease; experiment: Effect on esophagus lesion in rat model of gastroesophageal reflux disease; type: in vivo; conditions: 10 mg/kg oral in 0.5% CMC, 1 h before reflux induction; esophagus examined 6 h after operation; SD male rats
# Source text: In order to determine the therapeutic effect on acute/chronic gastroesophageal reflux disease by the inventive Lonicerae Flos fraction or the compound represented by Formula 1 or 2, the method for measuring the therapeutic effect on gastroesophageal reflux disease (Nakamura K et al; Jpn. J. Pharmacol., 32(3), 445-456, 1982: Okabe S, et al; Jpn. J. Pharmacol., 69(4), 317-323, 1995) was applied to the present experiments.
# In order to determine the therapeutic effect of the inventive Lonicerae Flos extract, the inventive Lonicerae Flos fraction, or the compound represented by Formula 1 or 2 in a rat model of gastroesophageal reflux disease, Spraugue-Dawley(SD)-based male rats aged 7 weeks were fasted for 24 hours and supplied with water in a sufficient amount. The rats were weighed, and were orally administered with omeprazole (Sigma-Aldrich) as a control drug and with Lonicerae Flos extract/fraction as a test drug, which are suspended in a 0.5% CMC (Carboxymethyl cellulose) solution, one hour before induction of reflux. For reflux induction, the abdomen of the rat was opened, and a pylorus region between stomach and duodenum was ligated. Then, a stomach-esophagus sphincter between esophagus and stomach was injured by longitudinal incision of 1 cm so that gastric acid can be flowed backward due to abnormal relaxation of the sphincter. Also, a transition zone between forestomach and glandular portion was ligated by thread, and the abdomen was sutured by cotton thread. 6 hours after the completion of the operation, inhalation anesthesia was performed, and the esophagus was extracted. Then, the size of an esophagus lesion and the extent of esophagitis were observed. In Table 1, the esophagus lesion inhibition ratio (%) of a test group administered with the inventive test material, with respect to a control group, is noted.
Structure (SMILES),inflammation inhibition ratio (TNF-α),TNF-alpha (TNF-α),Hexosamine [1],content of hexosamine compared to that of a control group [1],Sialic acid [2],content of sialic acid compared to that of a control group [2],"acute oral toxicity (mortality, clinical symptoms, weight changes, blood tests, autopsy) [3]",lipid peroxidation inhibiting ratio [4],esophagus lesion inhibition ratio with respect to control group [5]
"O=C(/C=C/c1ccc(O)c(O)c1)OC1CC(O)(C(=O)O)CC(OC(=O)/C=C/c2ccc(O)c(O)c2)C1O (centres unmarked) [3,5-di-CQA, 3,5-di-O-caffeoylquinic acid]",87.8%,145.3 pg/mg Tissue weight,1445.2 μg/100 mg dry tissue,significantly increased,155.3 μg/100 mg dry tissue,significantly increased,not showing toxicity,49.1%,90%
"O=C(/C=C/c1ccc(O)c(O)c1)O[C@H]1[C@H](O)C[C@](O)(C(=O)O)C[C@H]1OC(=O)/C=C/c1ccc(O)c(O)c1 [4,5-di-CQA, 4,5-di-O-caffeoylquinic acid]",85.5%,150.1 pg/mg Tissue weight,1380.2 μg/100 mg dry tissue,significantly increased,148.1 μg/100 mg dry tissue,significantly increased,–,50.2%,81%
"COc1ccc2[nH]c([S+]([O-])Cc3ncc(C)c(OC)c3C)nc2c1 (centres unmarked) [omeprazole, reference compound]",80.5%,160.2 pg/mg Tissue weight,1176.3 μg/100 mg dry tissue,–,132.2 μg/100 mg dry tissue,–,–,53.9%,83%
